From patent US20230174608A1, “Polypeptide Derivative Having Dual Receptor Agonistic Action and Use Thereof” (TIANJIN INSTITUTE OF PHARMACEUTICAL RESEARCH CO., LTD., priority 2020, published 2023)
*1 amine or outer side, *2 acyl side, *3 side chain or, on linkers, in order; H or OH if unused. Where a SMILES comes first, the peptide text is derived from it. Side-chain parts run from the residue outwards. [ ]: non-standard residue; d: D form. The star is where a group is joined. C18 diacid = O=C(O)CCCCCCCCCCCCCCCCC(=O)*; γGlu = O=C(O)[C@H](CCC(=O)[*:2])N[*:1]; Palmitoyl = CCCCCCCCCCCCCCCC(=O)*; AEEA = NCCOCCOCC(=O)O; Aib = CC(C)(N)C(=O)O

Tests used:
GCGR = target: T1, GCGR (Homo sapiens, UniProt P47871); test: GC receptor-mediated cAMP production in vitro; type: cell-based; settings: HEK293 cell line stably expressing GCGR
T1 construct: expressed in transfected cells
T1 sequence (P47871 26-477, species assumed): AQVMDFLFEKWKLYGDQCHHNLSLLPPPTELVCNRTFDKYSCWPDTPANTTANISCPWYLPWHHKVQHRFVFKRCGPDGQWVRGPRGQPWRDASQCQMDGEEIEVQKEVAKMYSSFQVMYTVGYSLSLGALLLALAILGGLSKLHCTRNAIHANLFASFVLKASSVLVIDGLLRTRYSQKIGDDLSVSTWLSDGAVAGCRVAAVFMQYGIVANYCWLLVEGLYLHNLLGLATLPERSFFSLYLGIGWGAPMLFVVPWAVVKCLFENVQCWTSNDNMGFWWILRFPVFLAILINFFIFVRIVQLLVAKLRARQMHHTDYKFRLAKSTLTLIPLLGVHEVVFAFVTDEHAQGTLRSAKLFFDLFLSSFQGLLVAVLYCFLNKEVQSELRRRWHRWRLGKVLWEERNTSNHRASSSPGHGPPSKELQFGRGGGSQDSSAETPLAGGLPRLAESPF
Description: (§1) HEK293 cell line stably expressing GLP-1R or GCGR was used for screening GLP-1R and GCGR agonist.
(§2) Preparation of test sample: each compound was prepared into 100 μM stock solution, and then gradually diluted to working concentrations of 1 μM, 100 nM, 10 nM, 1 nM, 10^−1 nM, 10^−2 nM, 10^−3 nM, and H2O.
(§3) 1) Each compound to be tested was mixed with a serum-free medium (containing 0.1% BSA and 0.5 mM IBMX) to obtain a solution at a concentration 2 times the working concentration.
(§4) 2) The cells were digested, suspended in a serum-free medium (containing 0.5 mM IBMX), counted, and placed in a 384-well plate at a density of 1,000 cells/5 μL/well, then 5 μL of the testing compound was added, and the plate was placed in dark for reaction for 30 min.
(§5) 3) After the reaction was completed, a substrate for detecting cAMP was added, and the plate was placed in dark for reaction at the room temperature for 60 min.
(§6) 4) After the reaction was completed, the plate was placed on the Envision2104 multifunctional microplate reader for detection, and the ratio of optical density (OD) values at 665 nm and 615 nm were read out.

GLP-1R = target: T2, GLP-1R (Homo sapiens, UniProt P43220); test: GLP-1 receptor-mediated cAMP production in vitro; type: cell-based; settings: HEK293 cell line stably expressing GLP-1R
T2 construct: expressed in transfected cells
T2 sequence (P43220 24-463, species assumed): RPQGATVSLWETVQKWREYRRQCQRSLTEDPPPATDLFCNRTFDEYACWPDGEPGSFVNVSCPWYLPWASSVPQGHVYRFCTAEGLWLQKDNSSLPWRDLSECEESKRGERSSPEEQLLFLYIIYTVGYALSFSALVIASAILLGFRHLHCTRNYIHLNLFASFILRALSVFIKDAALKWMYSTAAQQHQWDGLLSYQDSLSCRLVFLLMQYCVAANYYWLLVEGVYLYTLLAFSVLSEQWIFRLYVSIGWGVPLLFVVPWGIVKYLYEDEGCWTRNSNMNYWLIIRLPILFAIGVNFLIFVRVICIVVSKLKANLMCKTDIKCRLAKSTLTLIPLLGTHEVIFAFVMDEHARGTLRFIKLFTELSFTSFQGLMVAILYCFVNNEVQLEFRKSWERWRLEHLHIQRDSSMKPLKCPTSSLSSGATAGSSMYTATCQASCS
Description: as §1, §2, §3, §4, §5, §6

Structure (SMILES)	EC50 (GCGR)	EC50 (GLP-1R)
CCCCCCCCCCCCCCCC(=O)N[C@@H](CCC(=O)NCCOCCOCC(=O)NCCOCCOCC(=O)NCCCC[C@H](NC(=O)[C@H](C)NC(=O)[C@H](C)NC(=O)[C@H](CCCNC(=N)N)NC(=O)[C@H](CCC(=O)O)NC(=O)[C@H](CCC(=O)O)NC(=O)[C@H](CC(C)C)NC(=O)[C@H](Cc1ccc(O)cc1)NC(=O)[C@H](CCCCN)NC(=O)[C@H](CO)NC(=O)[C@H](Cc1ccc(O)cc1)NC(=O)[C@H](CC(=O)O)NC(=O)[C@H](CO)NC(=O)[C@@H](NC(=O)[C@H](Cc1ccccc1)NC(=O)[C@@H](NC(=O)CNC(=O)[C@H](CCC(N)=O)NC(=O)C(C)(C)NC(=O)[C@@H](N)Cc1c[nH]cn1)[C@@H](C)O)[C@@H](C)O)C(=O)N[C@@H](CCC(=O)O)C(=O)N[C@@H](Cc1ccccc1)C(=O)N[C@H](C(=O)N[C@@H](C)C(=O)N[C@@H](Cc1c[nH]c2ccccc12)C(=O)N[C@@H](CC(C)C)C(=O)N[C@@H](CCC(=O)O)C(=O)NCC(=O)N[C@@H](CCC(=O)O)C(=O)NCC(N)=O)[C@@H](C)CC)C(=O)O [dgc021] (H-H[Aib]QGTFTSDYSKYLEERAAK([AEEA-AEEA-γGlu-Palmitoyl])EFIAWLEGEG-NH2; N-terminus assumed)	3.93 nM	0.382 nM
CCCCCCCCCCCCCCCC(=O)N[C@@H](CCC(=O)NCCOCCOCC(=O)NCCOCCOCC(=O)NCCCC[C@H](NC(=O)[C@H](C)NC(=O)[C@H](C)NC(=O)[C@H](CCCNC(=N)N)NC(=O)[C@H](CCC(=O)O)NC(=O)[C@H](CCC(=O)O)NC(=O)[C@H](CC(C)C)NC(=O)[C@H](Cc1ccc(O)cc1)NC(=O)[C@H](CCCCN)NC(=O)[C@H](CO)NC(=O)[C@H](Cc1ccc(O)cc1)NC(=O)[C@H](CC(=O)O)NC(=O)[C@H](CO)NC(=O)[C@@H](NC(=O)[C@H](Cc1ccccc1)NC(=O)[C@@H](NC(=O)CNC(=O)[C@H](CCC(N)=O)NC(=O)C(C)(C)NC(=O)[C@@H](N)Cc1c[nH]cn1)[C@@H](C)O)[C@@H](C)O)C(=O)N[C@@H](CCC(=O)O)C(=O)N[C@@H](Cc1ccccc1)C(=O)N[C@H](C(=O)N[C@@H](C)C(=O)N[C@@H](Cc1c[nH]c2ccccc12)C(=O)N[C@@H](CC(C)C)C(=O)N[C@@H](CCC(=O)O)C(=O)N[C@@H](C)C(=O)NCC(=O)NCC(N)=O)[C@@H](C)CC)C(=O)O [dgc011] (H-H[Aib]QGTFTSDYSKYLEERAAK([AEEA-AEEA-γGlu-Palmitoyl])EFIAWLEAGG-NH2; N-terminus assumed)	4.13 nM	0.955 nM
CC(C)C[C@H](NC(=O)[C@H](Cc1c[nH]c2ccccc12)NC(=O)[C@H](C)NC(=O)[C@@H](NC(=O)[C@H](Cc1ccccc1)NC(=O)[C@H](CCC(=O)O)NC(=O)[C@H](CCCCNC(=O)COCCOCCNC(=O)COCCOCCNC(=O)CC[C@H](NC(=O)CCCCCCCCCCCCCCCCC(=O)O)C(=O)O)NC(=O)[C@H](C)NC(=O)[C@H](C)NC(=O)[C@H](CCCNC(=N)N)NC(=O)[C@H](CCC(=O)O)NC(=O)[C@H](CCC(=O)O)NC(=O)[C@H](CC(C)C)NC(=O)[C@H](Cc1ccc(O)cc1)NC(=O)[C@H](CCCCN)NC(=O)[C@H](CO)NC(=O)[C@H](Cc1ccc(O)cc1)NC(=O)[C@H](CC(=O)O)NC(=O)[C@H](CO)NC(=O)[C@@H](NC(=O)[C@H](Cc1ccccc1)NC(=O)[C@@H](NC(=O)CNC(=O)[C@H](CCC(N)=O)NC(=O)[C@@H](CO)NC(=O)[C@@H](N)Cc1c[nH]cn1)[C@@H](C)O)[C@@H](C)O)C(C)C)C(=O)N[C@@H](CCC(=O)O)C(=O)NCC(=O)NCC(N)=O [dgc012] (H-H[dS]QGTFTSDYSKYLEERAAK([AEEA-AEEA-γGlu-C18 diacid])EFVAWLEGG-NH2; N-terminus assumed)	2.17 nM	0.044 nM
CC[C@H](C)[C@H](NC(=O)[C@H](Cc1ccccc1)NC(=O)[C@H](CCC(=O)O)NC(=O)[C@H](CCCCNC(=O)COCCOCCNC(=O)COCCOCCNC(=O)CC[C@H](NC(=O)CCCCCCCCCCCCCCCCC(=O)O)C(=O)O)NC(=O)[C@H](C)NC(=O)[C@H](C)NC(=O)[C@H](CCCNC(=N)N)NC(=O)[C@H](CCC(=O)O)NC(=O)[C@H](CCC(=O)O)NC(=O)[C@H](CC(C)C)NC(=O)[C@H](Cc1ccc(O)cc1)NC(=O)[C@H](CCCCN)NC(=O)[C@H](CO)NC(=O)[C@H](Cc1ccc(O)cc1)NC(=O)[C@H](CC(=O)O)NC(=O)[C@H](CO)NC(=O)[C@@H](NC(=O)[C@H](Cc1ccccc1)NC(=O)[C@@H](NC(=O)CNC(=O)[C@H](CCC(N)=O)NC(=O)C(C)(C)NC(=O)[C@@H](N)Cc1c[nH]cn1)[C@@H](C)O)[C@@H](C)O)C(=O)N[C@@H](C)C(=O)N[C@@H](Cc1c[nH]c2ccccc12)C(=O)N[C@@H](CC(C)C)C(=O)N[C@@H](CCC(=O)O)C(=O)N[C@@H](C)C(=O)NCC(=O)NCC(N)=O [dgc006] (H-H[Aib]QGTFTSDYSKYLEERAAK([AEEA-AEEA-γGlu-C18 diacid])EFIAWLEAGG-NH2; N-terminus assumed)	6.41 nM	0.472 nM

Results, then the molecule that gave them:

EC50 (GCGR)	EC50 (GLP-1R)	Structure (SMILES)
0.821 nM	0.516 nM	CCCCCCCCCCCCCCCC(=O)N[C@@H](CCC(=O)NCCCC[C@H](NC(=O)[C@H](C)NC(=O)[C@H](C)NC(=O)[C@H](CCCNC(=N)N)NC(=O)[C@H](CCC(=O)O)NC(=O)[C@H](CC(=O)O)NC(=O)[C@H](CC(C)C)NC(=O)[C@H](Cc1ccc(O)cc1)NC(=O)[C@H](CCCCN)NC(=O)[C@H](CO)NC(=O)[C@H](Cc1ccc(O)cc1)NC(=O)[C@H](CC(=O)O)NC(=O)[C@H](CO)NC(=O)[C@@H](NC(=O)[C@H](Cc1ccccc1)NC(=O)[C@@H](NC(=O)CNC(=O)[C@H](CCC(N)=O)NC(=O)C(C)(C)NC(=O)[C@@H](N)Cc1c[nH]cn1)[C@@H](C)O)[C@@H](C)O)C(=O)N[C@@H](CCC(=O)O)C(=O)N[C@@H](Cc1ccccc1)C(=O)N[C@H](C(=O)N[C@@H](C)C(=O)N[C@@H](Cc1c[nH]c2ccccc12)C(=O)N[C@@H](CC(C)C)C(=O)N[C@@H](CCC(=O)O)C(=O)NCC(=O)NCC(N)=O)[C@@H](C)CC)C(=O)O [dgc014] (HELM PEPTIDE1{H.[Aib].Q.G.T.F.T.S.D.Y.S.K.Y.L.D.E.R.A.A.K.E.F.I.A.W.L.E.G.G.[am]}|PEPTIDE2{[CCCCCCCCCCCCCCCC(=O)[*:2]].[gGlu]}$PEPTIDE1,PEPTIDE2,20:R3-2:R2$$$V2.0; N-terminus assumed)
1.83 nM	0.792 nM	CCCCCCCCCCCCCCCC(=O)N[C@@H](CCC(=O)NCCCC[C@H](NC(=O)[C@H](C)NC(=O)[C@H](C)NC(=O)[C@H](CCCNC(=N)N)NC(=O)[C@H](CCC(=O)O)NC(=O)[C@H](CCC(=O)O)NC(=O)[C@H](CC(C)C)NC(=O)[C@H](Cc1ccc(O)cc1)NC(=O)[C@H](CCCCN)NC(=O)[C@H](CO)NC(=O)[C@H](Cc1ccc(O)cc1)NC(=O)[C@H](CC(=O)O)NC(=O)[C@H](CO)NC(=O)[C@@H](NC(=O)[C@H](Cc1ccccc1)NC(=O)[C@@H](NC(=O)CNC(=O)[C@H](CCC(N)=O)NC(=O)C(C)(C)NC(=O)[C@@H](N)Cc1c[nH]cn1)[C@@H](C)O)[C@@H](C)O)C(=O)N[C@@H](CCC(=O)O)C(=O)N[C@@H](Cc1ccccc1)C(=O)N[C@H](C(=O)N[C@@H](C)C(=O)N[C@@H](Cc1c[nH]c2ccccc12)C(=O)N[C@@H](CC(C)C)C(=O)N[C@@H](CCC(=O)O)C(=O)NCC(=O)N[C@@H](CCC(=O)O)C(=O)NCC(N)=O)[C@@H](C)CC)C(=O)O [dgc019] (HELM PEPTIDE1{H.[Aib].Q.G.T.F.T.S.D.Y.S.K.Y.L.E.E.R.A.A.K.E.F.I.A.W.L.E.G.E.G.[am]}|PEPTIDE2{[CCCCCCCCCCCCCCCC(=O)[*:2]].[gGlu]}$PEPTIDE1,PEPTIDE2,20:R3-2:R2$$$V2.0; N-terminus assumed)
1.53 nM	0.899 nM	CCCCCCCCCCCCCCCC(=O)N[C@@H](CCC(=O)NCCCC[C@H](NC(=O)[C@H](C)NC(=O)[C@H](C)NC(=O)[C@H](CCCNC(=N)N)NC(=O)[C@H](CCC(=O)O)NC(=O)[C@H](CCC(=O)O)NC(=O)[C@H](CC(C)C)NC(=O)[C@H](Cc1ccc(O)cc1)NC(=O)[C@H](CCCCN)NC(=O)[C@H](CO)NC(=O)[C@H](Cc1ccc(O)cc1)NC(=O)[C@H](CC(=O)O)NC(=O)[C@H](CO)NC(=O)[C@@H](NC(=O)[C@H](Cc1ccccc1)NC(=O)[C@@H](NC(=O)CNC(=O)[C@H](CCC(N)=O)NC(=O)C(C)(C)NC(=O)[C@@H](N)Cc1c[nH]cn1)[C@@H](C)O)[C@@H](C)O)C(=O)N[C@@H](CCC(=O)O)C(=O)N[C@@H](Cc1ccccc1)C(=O)N[C@H](C(=O)N[C@@H](C)C(=O)N[C@@H](Cc1c[nH]c2ccccc12)C(=O)N[C@@H](CC(C)C)C(=O)N[C@@H](CCC(=O)O)C(=O)NCC(=O)NCC(N)=O)[C@@H](C)CC)C(=O)O [dgc015] (HELM PEPTIDE1{H.[Aib].Q.G.T.F.T.S.D.Y.S.K.Y.L.E.E.R.A.A.K.E.F.I.A.W.L.E.G.G.[am]}|PEPTIDE2{[CCCCCCCCCCCCCCCC(=O)[*:2]].[gGlu]}$PEPTIDE1,PEPTIDE2,20:R3-2:R2$$$V2.0; N-terminus assumed)
